Source: patent US20070128217A1 (priority 2003, published 2007)

Key:
[1] = system: control sera (pooled serum of ten healthy LUMC hospital workers; commercial negative donor pooled serum from the Dutch bloodbank); assay type: binding, human; parameters: Binding of Control serum LUMC to linear peptides / Binding of Control serum Blood-bank to linear peptides / Binding of Control serum LUMC to looped peptides / Binding of Control Serum Blood-Bank to Looped peptides / Binding of Control serum LUMC to linear peptides of the protein M of SARS-CoV Urbani / Binding of Control serum Blood-bank to linear peptides of the protein M of SARS-CoV Urbani / Binding of Control serum LUMC to looped peptides of the protein M of SARS-CoV Urbani / Binding of Control Serum Blood-Bank to Looped peptides of the protein M of SARS-CoV Urbani: unit not given here
[2] = system: rabbit serum obtained by immunizing a rabbit with the SARS-CoV strain Frankfurt 1; assay type: binding; parameters: Binding of a rabbit serum to linear peptides / Binding of a rabbit serum to looped peptides / Rabbit serum linear peptides / Rabbit serum looped peptides / Binding of a rabbit serum to linear peptides of protein N of SARS-CoV Urbani (Rabbit serum linear peptides) / Binding of a rabbit serum to looped/cyclic peptides of protein N of SARS-CoV Urbani (Rabbit serum looped peptides): unit not given here
[3] = system: antibodies in sera from SARS patients (sera 1a, 1b, 2, 6, 37, 62, London, SARS-yellow, SARS-green); assay type: binding, human; parameters: Binding of serum 6 to linear peptides of protein X1 of SARS-CoV Urbani / Binding of serum 37 to linear peptides of protein X1 of SARS-CoV Urbani / Binding of serum 6 to looped/cyclic peptide (PEPSCAN-ELISA) / Binding of serum 37 to looped/cyclic peptide (PEPSCAN-ELISA) / Binding of serum 37 to looped/cyclic peptides of protein X1 of SARS-CoV Urbani / Binding of serum 6 to linear peptides of protein X2 / Binding of serum 37 to linear peptides of protein X2 / Binding of serum 37 to looped/cyclic peptides of protein X2 of SARS-CoV Urbani / Binding of serum 6 to linear peptides of protein M of SARS-CoV Urbani / Binding of serum 37 to linear peptides of protein M of SARS-CoV Urbani / Binding of serum 6 to looped/cyclic peptides of protein M of SARS-CoV Urbani / Binding of serum 37 to looped/cyclic peptides of protein M of SARS-CoV Urbani / Binding of serum 6 to linear peptides of protein X3 of SARS-CoV Urbani / Binding of serum 37 to linear peptides of protein X3 of SARS-CoV Urbani / Binding of serum 37 to looped/cyclic peptides of protein X3 of SARS-CoV Urbani / Binding of serum 6 to linear peptides of protein X4 of SARS-CoV Urbani / Binding of serum 37 to linear peptides of protein X4 of SARS-CoV Urbani / Binding of serum 37 to looped/cyclic peptides of protein X4 of SARS-CoV Urbani / Binding of serum 6 to linear peptides of protein X5 of SARS-CoV Urbani / Binding of serum 37 to linear peptides of protein X5 of SARS-CoV Urbani / Binding of serum 37 to looped/cyclic peptides of protein X5 of SARS-CoV Urbani / Binding of serum 6 to linear peptides of protein N of SARS-CoV Urbani / Binding of serum 37 to linear peptides of protein N of SARS-CoV Urbani / Binding of serum 6 to linear peptide (PEPSCAN-ELISA) / Binding of serum 1a to looped/cyclic peptides of protein N of SARS-CoV Urbani / Binding of serum 1b to looped/cyclic peptides of protein N of SARS-CoV Urbani / Binding of serum 2 to looped/cyclic peptides of protein N of SARS-CoV Urbani / Binding of serum 6 to looped/cyclic peptides of protein N of SARS-CoV Urbani / Binding of serum 37 to looped/cyclic peptides of protein N of SARS-CoV Urbani / Binding of serum 62 to looped/cyclic peptides of protein N of SARS-CoV Urbani / Binding of serum London to looped/cyclic peptides of protein N of SARS-CoV Urbani / Binding of serum SARS-green to looped/cyclic peptides of protein N of SARS-CoV Urbani: unit not given here

## EPCPSGTYEGNSPFH
[1]
  Binding of Control Serum Blood-Bank to Looped peptides: 0.6
  Binding of Control serum Blood-bank to linear peptides: 0.6
  Binding of Control serum LUMC to linear peptides: 0.5
  Binding of Control serum LUMC to looped peptides: 0.8
[2]
  Rabbit serum linear peptides: 0.6
  Rabbit serum looped peptides: 0.4
[3]
  Binding of serum 1a to linear peptides of protein X4 of SARS-CoV Urbani: 0.7
  Binding of serum 1a to looped/cyclic peptides of protein X4 of SARS-CoV Urbani: 0.8
  Binding of serum 1b to linear peptides of protein X4 of SARS-CoV Urbani: 0.5
  Binding of serum 1b to looped/cyclic peptides of protein X4 of SARS-CoV Urbani: 0.6
  Binding of serum 2 to linear peptides of protein X4 of SARS-CoV Urbani: 0.4
  Binding of serum 2 to looped/cyclic peptides of protein X4 of SARS-CoV Urbani: 0.7
  Binding of serum 6 to linear peptides of protein X4 of SARS-CoV Urbani: 0.5
  Binding of serum 6 to looped/cyclic peptides of protein X4 of SARS-CoV Urbani: 0.6
  Binding of serum 37 to linear peptides of protein X4 of SARS-CoV Urbani: 0.6
  Binding of serum 37 to looped/cyclic peptides of protein X4 of SARS-CoV Urbani: 0.7
  Binding of serum 62 to linear peptides of protein X4 of SARS-CoV Urbani: 0.7
  Binding of serum 62 to looped/cyclic peptides of protein X4 of SARS-CoV Urbani: 0.6
  Binding of serum London to linear peptides of protein X4 of SARS-CoV Urbani: 0.7
  Binding of serum London to looped/cyclic peptides of protein X4 of SARS-CoV Urbani: 0.4
  Binding of serum SARS-green to linear peptides of protein X4 of SARS-CoV Urbani: 0.6
  Binding of serum SARS-green to looped/cyclic peptides of protein X4 of SARS-CoV Urbani: 0.5
  Binding of serum SARS-yellow to linear peptides of protein X4 of SARS-CoV Urbani: 0.9
  Binding of serum SARS-yellow to looped/cyclic peptides of protein X4 of SARS-CoV Urbani: 0.5

## ETNILLNVPLRGTIV
[1]
  Binding of Control Serum Blood-Bank to Looped peptides of the protein M of SARS-CoV Urbani: 1.0
  Binding of Control serum Blood-bank to linear peptides of the protein M of SARS-CoV Urbani: 0.7
  Binding of Control serum LUMC to linear peptides of the protein M of SARS-CoV Urbani: 0.3
  Binding of Control serum LUMC to looped peptides of the protein M of SARS-CoV Urbani: 0.9
[2]
  Rabbit serum linear peptides: 0.5
  Rabbit serum looped peptides: 0.0
[3]
  Binding of serum 1a to linear peptides of protein M of SARS-CoV Urbani: 0.7
  Binding of serum 1a to looped/cyclic peptides of protein M of SARS-CoV Urbani: 0.5
  Binding of serum 1b to linear peptides of protein M of SARS-CoV Urbani: 0.5
  Binding of serum 1b to looped/cyclic peptides of protein M of SARS-CoV Urbani: 0.6
  Binding of serum 2 to linear peptides of protein M of SARS-CoV Urbani: 0.5
  Binding of serum 2 to looped/cyclic peptides of protein M of SARS-CoV Urbani: 0.7
  Binding of serum 6 to linear peptides of protein M of SARS-CoV Urbani: 0.4
  Binding of serum 6 to looped/cyclic peptides of protein M of SARS-CoV Urbani: 0.8
  Binding of serum 37 to linear peptides of protein M of SARS-CoV Urbani: 0.6
  Binding of serum 37 to looped/cyclic peptides of protein M of SARS-CoV Urbani: 0.4
  Binding of serum 62 to linear peptides of protein M of SARS-CoV Urbani: 0.7
  Binding of serum 62 to looped/cyclic peptides of protein M of SARS-CoV Urbani: 0.5
  Binding of serum London to linear peptides of protein M of SARS-CoV Urbani: 0.4
  Binding of serum London to looped/cyclic peptides of protein M of SARS-CoV Urbani: 0.2
  Binding of serum SARS-green to linear peptides of protein M of SARS-CoV Urbani: 0.3
  Binding of serum SARS-green to looped/cyclic peptides of protein M of SARS-CoV Urbani: 0.2
  Binding of serum SARS-yellow to linear peptides of protein M of SARS-CoV Urbani: 0.1
  Binding of serum SARS-yellow to looped/cyclic peptides of protein M of SARS-CoV Urbani: 0.5

## EVYYQLESTQITTDT
[1]
  Binding of Control Serum Blood-Bank to Looped peptides: 0.5
  Binding of Control serum Blood-bank to linear peptides: 0.4
  Binding of Control serum LUMC to linear peptides: 0.4
  Binding of Control serum LUMC to looped peptides: 0.4
[2]
  Binding of a rabbit serum to linear peptides: 0.1
  Binding of a rabbit serum to looped peptides: 0.4
[3]
  Binding of serum 1a to linear peptides of protein X1 of SARS-CoV Urbani: 0.7
  Binding of serum 1a to looped/cyclic peptides of protein X1 of SARS-CoV Urbani: 0.5
  Binding of serum 1b to linear peptides of protein X1 of SARS-CoV Urbani: 0.6
  Binding of serum 1b to looped/cyclic peptides of protein X1 of SARS-CoV Urbani: 0.4
  Binding of serum 2 to linear peptides of protein X1 of SARS-CoV Urbani: 0.4
  Binding of serum 2 to looped/cyclic peptides of protein X1 of SARS-CoV Urbani: 0.1
  Binding of serum 6 to linear peptides of protein X1 of SARS-CoV Urbani: 0.5
  Binding of serum 6 to looped/cyclic peptides of protein X1 of SARS-CoV Urbani: 0.2
  Binding of serum 37 to linear peptides of protein X1 of SARS-CoV Urbani: 0.7
  Binding of serum 37 to looped/cyclic peptides of protein X1 of SARS-CoV Urbani: 0.5
  Binding of serum 62 to linear peptides of protein X1 of SARS-CoV Urbani: 0.4
  Binding of serum 62 to looped/cyclic peptides of protein X1 of SARS-CoV Urbani: 0.5
  Binding of serum London to linear peptides of protein X1 of SARS-CoV Urbani: 0.3
  Binding of serum London to looped/cyclic peptides of protein X1 of SARS-CoV Urbani: 0.2
  Binding of serum SARS-green to linear peptides of protein X1 of SARS-CoV Urbani: 0.2
  Binding of serum SARS-green to looped/cyclic peptides of protein X1 of SARS-CoV Urbani: 0.3
  Binding of serum SARS-yellow to linear peptides of protein X1 of SARS-CoV Urbani: 0.3
  Binding of serum SARS-yellow to looped/cyclic peptides of protein X1 of SARS-CoV Urbani: 0.3

## FAAYNRYRIGNYKLN
[1]
  Binding of Control Serum Blood-Bank to Looped peptides of the protein M of SARS-CoV Urbani: 0.6
  Binding of Control serum Blood-bank to linear peptides of the protein M of SARS-CoV Urbani: 0.7
  Binding of Control serum LUMC to linear peptides of the protein M of SARS-CoV Urbani: 0.3
  Binding of Control serum LUMC to looped peptides of the protein M of SARS-CoV Urbani: 0.7
[2]
  Rabbit serum linear peptides: 0.3
  Rabbit serum looped peptides: 0.6
[3]
  Binding of serum 1a to linear peptides of protein M of SARS-CoV Urbani: 0.6
  Binding of serum 1a to looped/cyclic peptides of protein M of SARS-CoV Urbani: 0.8
  Binding of serum 1b to linear peptides of protein M of SARS-CoV Urbani: 0.3
  Binding of serum 1b to looped/cyclic peptides of protein M of SARS-CoV Urbani: 0.4
  Binding of serum 2 to linear peptides of protein M of SARS-CoV Urbani: 0.5
  Binding of serum 2 to looped/cyclic peptides of protein M of SARS-CoV Urbani: 0.7
  Binding of serum 6 to linear peptides of protein M of SARS-CoV Urbani: 0.4
  Binding of serum 6 to looped/cyclic peptides of protein M of SARS-CoV Urbani: 1.3
  Binding of serum 37 to linear peptides of protein M of SARS-CoV Urbani: 0.5
  Binding of serum 37 to looped/cyclic peptides of protein M of SARS-CoV Urbani: 0.6
  Binding of serum 62 to linear peptides of protein M of SARS-CoV Urbani: 0.7
  Binding of serum 62 to looped/cyclic peptides of protein M of SARS-CoV Urbani: 0.6
  Binding of serum London to linear peptides of protein M of SARS-CoV Urbani: 0.3
  Binding of serum London to looped/cyclic peptides of protein M of SARS-CoV Urbani: 0.7
  Binding of serum SARS-green to linear peptides of protein M of SARS-CoV Urbani: 0.2
  Binding of serum SARS-green to looped/cyclic peptides of protein M of SARS-CoV Urbani: 0.2
  Binding of serum SARS-yellow to linear peptides of protein M of SARS-CoV Urbani: 0.0
  Binding of serum SARS-yellow to looped/cyclic peptides of protein M of SARS-CoV Urbani: 0.8
